Experimental data as given in patent publication US20160243011A1, “Formulations Comprising Idebenone, N-Acetyl-S-Farnesyl-L-Cysteine and Ergothioneine and Uses Thereof” (ELIZABETH ARDEN, INC., priority 2012, published 2016).

How the values were obtained:
[1] = test system: IL-6; assay: UVB induced IL-6 release in NHEKs (ELISA); assay type: cell-based; settings: Homo sapiens, light or radiation study; Compound (0.1 μM); NHEK, UVB 25 mJ/cm^2, medium assayed 24 h later; read-out: IL-6 (% inhibited)
[2] = test system: TNFα; assay: UVB induced TNFα release in NHEKs (ELISA); assay type: cell-based; settings: Homo sapiens, light or radiation study; Compound (0.1 μM); NHEK, UVB 25 mJ/cm^2, medium assayed 24 h later; read-out: TNFα (% inhibited)
[3] = test system: IL-6; assay: UVB induced IL-6 release in NHEKs (ELISA); assay type: cell-based, Human; settings: for EPF Score: Example 8 (8A), IL-6; for inhibition at 1 µM: Homo sapiens, light or radiation study, read-out: IL-6 (% inh)
Description: (§1) In order to evaluate the impact of UV-induced inflammation in human skin, primary cell monolayer cultures were exposed to different types of UV radiation, i.e. UVB and UVA. Primary Human Dermal Fibroblasts (HDFs) were irradiated with UVA (350 nm) and Normal Human Epidermal Keratinocytes cells (NHEKs) with UVB (305 nm). HDFs were cultured in Dulbecco's Modified Eagle Medium (DMEM) basal medium (Life Technologies, Grand Island, N.Y.), supplemented with 10% v/v fetal bovine serum (FBS), (referred to as supplemented media) at 37° C. with 5% CO2 NHEKs were cultured in Epilife® basal medium (Life Technologies, Grand Island, N.Y.), supplemented with 60 μM calcium, 0.2% v/v bovine pituitary extract (BPE), 5 μg/ml bovine insulin, 0.18 μg/ml hydrocortisone, 5 μg/ml bovine transferrin, 5 μg/ml, 0.2 ng/ml human epidermal growth factor (referred to as supplemented media) at 37° C. with 5% CO2.
(§2) In order to avoid possible immunomodulating effects of these agents during compound treatments, cells were kept in DMEM or Epilife® basal medium without growth supplements (referred to as depleted media). Cells were plated at a concentration of 3.8×10^4 cells/well in supplemented media in 24-well plates. After cells were allowed to adhere (24 hours), media was changed to depleted media.
(§3) For “blend” testing, a formulation of idebenone, Arazine™ and ergothioneine (1:1:1 molar ratio) was prepared before mixing to medium. Six hours after pre-treatments, to induce a pro-inflammatory response, pre-treatment media was removed and replaced with phosphate-buffered saline (PBS).
(§4) Immediately after UV irradiation, cells were placed in fresh depleted medium for 24 hours. Cell cultures were examined for viability by the reduction of 3-(4,5-dimethylthiazol-2-yl)-5-(3-carboxymethoxyphenyl)-2-(4-sulfophenyl)-2H-tetrazolium (MTS assay; Promega, Madison, Wis.) to determine the percentage of viable cells after compound and UV irradiation. Media supernatants were harvested from non-irradiated and UV irradiated cells and assayed by enzyme-linked immunosorbent assays (ELISA) for the stimulated release of pro-inflammatory mediators. NHEKs were assayed for concentrations of Interleukin-6 (IL-6) and Tumor Necrosis Factor-alpha (TNF-alpha) using appropriate protein standards (BD Biosciences; San Jose, Calif.). HDFs were assayed for concentrations of IL-6 (BD Biosciences) or pro-Matrix Metalloproteinase-1 (pro-MMP-1) using appropriate protein standards (R&D Systems; Minneapolis, Minn.).
(§5) Control groups contained non-irradiated cells. Twenty four hours later, cell medium were assayed for the presence of pro-inflammatory mediators by ELISA.
(§6) To test these anti-oxidants for anti-inflammatory properties, primary Human Epidermal Keratinocytes (NHEKs) were cultured in the presence of each ingredient for 6 hours. Ingredients were then removed and cells were irradiated with 25 mJ/cm2 UVB. Media supernatants were collected after 24 hours and analyzed by ELISA for IL-6 and TNF-α. All ingredients were tested at 1 μM.

[4] = test system: TNFα; assay: UVB induced TNFα release in NHEKs (ELISA); assay type: cell-based, Human; settings: for EPF Score: Example 8 (8B), TNFα; for inhibition at 1 µM: Homo sapiens, light or radiation study, read-out: TNFα (% inh)
Description: as §1, §2, §3, §4, §5, §6

[5] = test system: Human LDL; assay: LDL pro-oxidative system measuring primary oxidation by-products; assay type: biochemical; settings: 100 μM; for Lipid hydrogen-peroxide % protection: CuSO4 oxidative system, 24 hours; for EPF Score: Example 4
Description: Human LDL was oxidized with or without 0.1 mM materials under a CuSO4 oxidative system in Ham's F-10 medium.

[6] = test system: Rat liver microsomes; assay: Microsome pro-oxidative system measuring secondary oxidation by-products (TBARS); assay type: biochemical; settings: 100 μM; for Lipid MDA % protection: NADPH/ADP/Fe^3+ oxidative system, 24 hours; for EPF Score: Example 5
Description: Rat liver microsomes were oxidized with or without test ingredients at 0.1 mM using a NADPH/ADP/Fe^3+ oxidative system. Secondary oxidation products were quantified after 24 hours incubation by measuring MDA equivalents directly utilizing the production of Thiobarbituric acid-reactive substances (TBARS). Results are expressed as the change in optical density (OD) at 532 nm to a degree that is proportional to an effective oxidation inhibition based on 1,1,3,3-tetraethoxypropane as MDA-TBA production standard.

[7] = test system: Primary Human Epidermal Keratinocytes (NHEKs); assay: UVB induced DNA damage (thymine dimer formation); assay type: cell-based; settings: 1 μM, 6 hours pre-treatment; UVB 200 mJ/cm^2
Description: Primary Human Epidermal Keratinocytes (NHEKs) were cultured in the presence of each test ingredient (1 μM) for 6 hours and later removed prior to UVB irradiation (200 mJ/cm^2). Cells were fixed after 1 hour and stained with anti-thymine dimer antibody. Positive rounded stained cells were counted using a fluorescence microscope.

[8] = test system: EpiDerm™ inserts; assay: UVB induced sun burn cell (SBC) formation using EpiDerm; assay type: cell-based; settings: for EPF Score: Example 7, 1 mM; for inhibition at 1000 µM: light or radiation study
Description: EpiDerm™ inserts (MatTek®) were topically treated in the presence of each test ingredient for 6 hours, after which they were removed, inserts were irradiated with 200 mJ/cm^2 UVB, and they fixed for H&E staining after 24 hours. The number of sun burn cells (SBCs) (white arrows) was counted. All compounds were tested at 1 mM.

[9] = test system: IL-6; assay: UVA induced IL-6 production in HDFs (ELISA); assay type: cell-based, Human; settings: for EPF Score: Example 9 (9A), IL-6; for inhibition at 1 µM: Homo sapiens, light or radiation study, read-out: IL-6 (% inh)
Description: as §1, §2, §3, §4
(§7) To test these anti-oxidants for anti-inflammatory and anti-aging properties, primary Human Dermal Fibroblasts (HDFs) were cultured in the presence of each ingredient for 6 hours. […] Media supernatants were collected after 24 hours and analyzed by ELISA for IL-6 and pro-MMP-1. All ingredients were tested at 1 μM.

[10] = test system: pro-MMP-1; assay: UVA induced pro-MMP-1 production in HDFs (ELISA); assay type: cell-based, Human; settings: for EPF Score: Example 9 (9B), MMP-1; for inhibition at 1 µM: Homo sapiens, light or radiation study, read-out: MMP-1 (% inh)
Description: as §1, §2, §3, §4, §7

[11] = Radical scavenging capacity (oxidation of ABTS by metmyoglobin); assay type: biochemical; settings: for EPF Score: Example 3, scores: 10^−3 M=5, 10^−4 M=15, 10^−5 M=20; for Effective and oxidant conc: lowest effective concentration, OD 750 nm
Excerpt: This assay analyzed the overall antioxidant capacity of test ingredients for the ability to inhibit the oxidation of 2,2′-azino-bis(3-ethylbenzothiazoline-6-sulphonic acid) (ABTS). to ABTS.^+ by metmyoglobin. The testing involved the suppression of optical density (OD) at 750 nm to a degree that is proportional to an effective oxidation inhibition. The EPF scoring system was based on the lowest effective concentration as previously described by MacDaniel et al., 2005 and scores were assigned as follows: 10^−3 M=5; 10^−4 M=15; 10^−5 M=20.

[12] = test system: Primary Human Epidermal Keratinocytes (NHEKs); assay: UVB induced DNA damage (thymine dimer formation); assay type: cell-based; settings: Example 6; 1 μM
[13] = Total Environmental Protection Factor (EPF) score; settings: 180 point scoring system (20 points for each endpoint measured)
[14] = 1 mM topical, 6 hours, UVB 200 mJ/cm^2, fixed after 24 hours
[15] = 6 hours pre-treatment, NHEK, UVB 25 mJ/cm2, 24 hours
[16] = 6 hours pre-treatment, HDF, UVA 12.5 J/cm^2, 24 hours
[17] = 1 μM, 6 hours pre-treatment, NHEK, UVB 25 mJ/cm2, 24 hours
[18] = 1 μM, 6 hours pre-treatment, HDF, UVA 12.5 J/cm^2, 24 hours

Compound | EPF Score ([3]; 1 μM) | EPF Score ([4]; 1 μM) | Lipid hydrogen-peroxide % protection [5] [%] | EPF Score [5] | Lipid MDA % protection [6] [%] | EPF Score [6] | DNA damage % protection [7] [%] | EPF Score [8] | inhibition at 1000 µM [8, 14] [%] | EPF Score ([9]; 1 μM) | EPF Score ([10]; 1 μM) | inhibition at 1 µM [3, 15] [%] | inhibition at 1 µM [4, 15] [%] | EPF Score [11] | Effective and oxidant conc [11] [mM] | inhibition at 1 µM [9, 16] [%] | inhibition at 1 µM [10, 16] [%] | EPF Score [12] | Total EPF score (TTL) [13] | other results
COC1=C(OC)C(=O)C(CCCCCCCCCCO)=C(C)C1=O [Idebenone] | – | – | – | – | – | – | – | – | – | – | – | – | – | – | – | – | – | – | – | inhibition at 0.1 µM [1]: 15%; inhibition at 0.1 µM [2]: 47%
c1coc(CNc2ncnc3[nH]cnc23)c1 [Kinetin] | 16 | 10 | 1 | 1 | 0 | 0 | 14 | 18 | 62 | 15 | 2 | – | – | – | – | – | – | – | – | –
COC1=C(OC)C(=O)C(C/C=C(\C)CC/C=C(\C)CC/C=C(\C)CC/C=C(\C)CC/C=C(\C)CC/C=C(\C)CC/C=C(\C)CC/C=C(\C)CC/C=C(\C)CCC=C(C)C)=C(C)C1=O [Ubiquinone] | 10 | 12 | 14 | 5 | 62 | 17 | 9 | 13 | 46 | 17 | 5 | 34 | 48 | 5 | >3 | 79 | 26 | 3 | 87 | –
O=C1O[C@H]([C@@H](O)CO)C(O)=C1O [Vitamin C, ascorbic acid] | 4 | 9 | 0 | 1 | 7 | 2 | 16 | 9 | 31 | 17 | 3 | 13 | 36 | 20 | 0.03 | 81 | 13 | 6 | 73 | –
tocopherol [Vitamin E] | 4 | 4 | 56 | 12 | 45 | 12 | 9 | 6 | – | 18 | 16 | – | – | 20 | 0.06 | – | – | 3 | 95 | IL-6 (% inh) [3, 17]: 12%; TNFα (% inh) [4, 17]: 16%; SBC % inhibition [8, 14]: 21%; IL-6 (% inh) [9, 18]: 82%; MMP-1 (% inh) [10, 18]: 80%
